Consider 2 compounds from patent US11376264B2, “Use of bromodomain-containing protein 9 antagonists in combination with vitamin D receptor agonists in diabetes treatment” (Salk Institute for Biological Studies, priority 2017, dated 2022).

In one assay the test system is db/db (BKS) mice. Put plainly: db/db (BKS) mouse T2D model treatment. The assay is classed as in vivo. As to the method: The following mice strains were from Jackson: VDR KO (B6.129S4-Vdrtm1Mbd/J), B6 db (B6.BKS(D)-Leprdb/J), BKS db (BKS.Cg-Dock7m+/+ Leprdb/J), C57BL6/J. Animals were maintained in a specific pathogen-free animal facility on a 12-hr light-dark cycle at an ambient temperature of 23° C. Water and food were provided ad lib. All animal experiments used age-matched male mice. VDR KO and control littermate mice were maintained on a VDR KO rescue diet containing 21% calcium, 0.67% phosphorus, and 20% lactose supplemented with 4.4 U vitamin D per gram diet.
db/db (B6) mice were grouped based on glucose levels at the age of 5 weeks. Treatments were started from 6 weeks and animals were treated with vehicle (30% 2-Hydroxypropyl-β Cyclodextrin, Sigma, H-107) or drugs 3 times a week. […] For db/db (BKS) mice, treatment started from age of 10 weeks.
For immunohistochemistry, FFPE tissues sections were deparaffinized and antigen retrieval performed using Vector Antigen Unmasking buffer (H3301). VectaStain ABC kit and ImmPACT DAB substrate (Vector Lab) were used to develop signal. Antibodies used: Pro-insulin (R&D, MAB13361, 1:100), insulin (Abcam, ab7842, 1:100), MAFA (Novus, NB400-137, 1:50), NKX6-1 (Cell Signaling, 54551, 1:100), and Glucagon (Abcam, ab82270, 1:100). DAPI-containing mounting media ([…] mounting medium for fluorescence) was used for nuclear staining. Immunostaining was visualized by ZEISS 780 confocal microscopy analysis.
ELISA were performed per manufacturer's instructions: mouse insulin (Millipore, EZRMI-13K), mouse proinsulin (Mercodia, NC9088881).

The test system of the next assay is VDR-PCAF interaction. In words: Immunoprecipitation of endogenous PCAF with HA-VDR in INS1 cells. The assay is classed as cell-based, rat. As to conditions: INS1 cells expressing HA-VDR, 1 hr after treatment. As to the method:
Immunoprecipitations were performed as described previously (He et al., 2010, Mol. Cell 38, 428-38). Briefly, cells are lysed using ice-cold lysis buffer (HEPES 20 mM pH8, EDTA 0.2 mM, NaCl 0.3 mM, NP40 0.5%, 15% glycerol) for 15 min, and after centrifuging the supernatant was collected. For HA- or Flag-tagged proteins, immunoprecipitations were performed using HA-magnetic beads (Pierce, P188836), or Flag-magnetic beads (Sigma, M8823) for 1.5 hr at 4° C. For other immunoprecipitations, primary antibodies were incubated with lysates for 2 hr followed by Protein A magnetic beads (Life Technologies, 10001D). After 3 washes with wash buffer (HEPES 10 mM pH8, EDTA 0.2 mM, NaCl 0.3 mM, NP40 0.1%, 15% glycerol), the beads were boiled with NuPage LDS sample buffer and the lysates were stored at −20° C.

The subject of assay [1] is VDR association with BAF/PBAF complex components. In words: VDR interactome (MudPIT, Western blot) in INS1 cells expressing HA-tagged VDR. The assay is classed as cell-based, rat. Particulars: for VDR interactions of key components of the PBAF complex (PBRM1, ARID2): INS1 cells expressing HA-tagged VDR; for VDR association of proteins common to the BAF and PBAF complexes: e.g. SMARCA1, SMARCA2, SMARCA4. As to the method:
Immunoprecipitations were performed as described previously (He et al., 2010, Mol. Cell 38, 428-38). Briefly, cells are lysed using ice-cold lysis buffer (HEPES 20 mM pH8, EDTA 0.2 mM, NaCl 0.3 mM, NP40 0.5%, 15% glycerol) for 15 min, and after centrifuging the supernatant was collected. For HA- or Flag-tagged proteins, immunoprecipitations were performed using HA-magnetic beads (Pierce, P188836), or Flag-magnetic beads (Sigma, M8823) for 1.5 hr at 4° C. For other immunoprecipitations, primary antibodies were incubated with lysates for 2 hr followed by Protein A magnetic beads (Life Technologies, 10001D). After 3 washes with wash buffer (HEPES 10 mM pH8, EDTA 0.2 mM, NaCl 0.3 mM, NP40 0.1%, 15% glycerol), the beads were boiled with NuPage LDS sample buffer and the lysates were stored at -20° C. Samples were precipitated by methanol/chloroform. Dried pellets were dissolved in 8 M urea/100 mM TEAB, pH 8.5. […] Proteins were digested overnight at 37° C. in 2 M urea/100 mM TEAB, pH 8.5, with trypsin (Promega). Digestion was quenched with formic acid, 5% final concentration. The digested samples were analyzed on a Fusion Orbitrap tribrid mass spectrometer (Thermo). The digest was injected directly onto a 30 cm, 75 um ID column packed with BEH 1.7 um C18 resin (Waters). Samples were separated at a flow rate of 200 nl/min on a nLC 1000 (Thermo). […] Column was re-equilibrated with 20 ul of buffer A prior to the injection of sample. Peptides were eluted directly from the tip of the column and nanosprayed directly into the mass spectrometer by application of 2.5 kV voltage at the back of the column. The Orbitrap Fusion was operated in a data-dependent mode. Full MS1 scans were collected in the Orbitrap at […] resolution with a mass range of 400 to 1600 m/z and an AGC target of 5e5. The cycle time was set to 3 sec, and within this 3 sec the most abundant ions per scan were selected for CID MS/MS in the ion trap with an AGC target of 1e4 and minimum intensity of 5000. Maximum fill times were set to 50 ms and 100 ms for MS and MS/MS scans respectively. Quadrupole isolation at 1.6m/z was used, monoisotopic precursor selection was enabled and dynamic exclusion was used with exclusion duration of 5 sec. Protein and peptide identification were done with Integrated Proteomics Pipeline-IP2 (Integrated Proteomics Applications). Tandem mass spectra were extracted from raw files using RawConverter (ref1) and searched with ProLuCID (ref2) against rat UniProt database. The search space included all fully-tryptic and half-tryptic peptide candidates. Carbamidomethylation on cysteine was considered as a static modification. Acetylation (42.010565) was considered as a differential modification on Lysine and the N-terminus. […]

A further assay concerns INS1 cells. In words: Thapsigargin or tunicamycin-induced ER stress in INS1 cells (p-PERK Western). The assay is classed as cell-based, rat. As to conditions: Cal pre-treated 1 hour, stressor overnight.

Take `C=C1/C(=C\C=C2/CCC[C@]3(C)[C@@H]([C@H](C)/C=C/[C@@H](O)C4CC4)CC[C@@H]23)C[C@@H](O)C[C@@H]1O` [Cal, calcipotriol]: in the assay on db/db (BKS) mice (fasting), the serum insulin levels result is given as “higher fasting serum insulin levels”. Also, in the assay on db/db (BKS) mice (i.p. 3 times a week), the “fasting blood glucose / glucose management” value is recorded as “only limited improvements”. Also, the “ER stress markers Calnexin and PERK” value in the assay with db/db (BKS) mice (immunohistochemistry of pancreatic sections) is “reduced”. Moreover, the “intracellular insulin level (immunofluorescence)” value with db/db (BKS) mice (pancreas sections) is reported as “rescued”. For the same compound, in the assay with VDR-PCAF interaction, the “PCAF binding to VDR” value is given as “increased”. In assay [1], the “VDR interactions of key components of the PBAF complex (PBRM1, ARID2)” value was “significantly increased”; the “VDR association of proteins common to the BAF and PBAF complexes” value is reported as “increased”. Besides, the “ER stress (p-PERK)” value with INS1 cells is “attenuated”.
`CCn1cc(-c2cccc(C(F)(F)F)c2)c2sc(C(=N)NC3CCS(=O)(=O)CC3)cc2c1=O` [iBRD9]: the “PCAF binding to VDR” value in the assay on VDR-PCAF interaction was “increased”. In assay [1], the “VDR interactions of key components of the PBAF complex (PBRM1, ARID2)” value was “significantly increased”; the “VDR association of proteins common to the BAF and PBAF complexes” value is listed as “increased”.
